The structures appear in SMILES notation. Where a SMILES comes first, the peptide text is derived from it. [ ]: non-standard residue; d: D form. ξ: configuration not given here. Ile(3ξ) = CCC(C)[C@H](N)C(=O)O

The experiment has as its target T1, Pituitary adenylate cyclase-activating polypeptide (Rattus norvegicus, UniProt P13589).
T1 sequence (P13589 whole entry): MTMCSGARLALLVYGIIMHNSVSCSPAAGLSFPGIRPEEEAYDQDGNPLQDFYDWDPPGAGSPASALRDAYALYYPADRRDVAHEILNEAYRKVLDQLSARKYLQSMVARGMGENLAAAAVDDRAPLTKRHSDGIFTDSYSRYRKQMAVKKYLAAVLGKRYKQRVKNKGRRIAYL
`CC[C@H](C)[C@H](NC(=O)CNC(=O)[C@H](CC(=O)O)NC(=O)[C@H](CCCN=C(N)N)NC(=O)[C@@H](N)Cc1cnc[nH]1)C(=O)N[C@@H](Cc1ccccc1)C(=O)N[C@H](C(=O)N[C@@H](CC(=O)O)C(=O)N[C@@H](CO)C(=O)N[C@@H](Cc1ccc(O)cc1)C(=O)N[C@@H](CO)C(=O)N[C@@H](CCCN=C(N)N)C(=O)N[C@@H](Cc1ccc(O)cc1)C(=O)N[C@@H](CCCN=C(N)N)C(=O)N[C@@H](CCCCN)C(=O)N[C@@H](CCC(N)=O)C(=O)N[C@@H](CCSC)C(=O)N[C@@H](C)C(=O)N[C@H](C(=O)N[C@@H](CCCCN)C(=O)N[C@@H](CCCCN)C(=O)N[C@@H](Cc1ccc(O)cc1)C(=O)N[C@@H](CC(C)C)C(=O)N[C@@H](C)C(=O)N[C@@H](C)C(=O)N[C@H](C(=O)N[C@@H](CC(C)C)C(N)=O)C(C)C)C(C)C)[C@@H](C)O` [[Arg2]PACAP(1-27)] returned a Ki of 1000 nM.
With `CC[C@H](C)[C@H](NC(=O)CNC(=O)[C@H](CC(=O)O)NC(=O)[C@H](CCCN=C(N)N)NC(=O)[C@@H](N)Cc1cnc[nH]1)C(=O)N[C@@H](Cc1ccccc1)C(=O)N[C@H](C(=O)N[C@@H](CC(=O)O)C(=O)N[C@@H](CO)C(=O)N[C@@H](Cc1ccc(O)cc1)C(=O)N[C@@H](CO)C(=O)N[C@@H](CCCN=C(N)N)C(=O)N[C@@H](Cc1ccc(O)cc1)C(=O)N[C@@H](CCCN=C(N)N)C(=O)N[C@@H](CCCCN)C(=O)N[C@@H](CCC(N)=O)C(=O)N[C@@H](CCSC)C(=O)N[C@@H](C)C(=O)N[C@H](C(=O)N[C@@H](CCCCN)C(=O)N[C@@H](CCCCN)C(=O)N[C@@H](Cc1ccc(O)cc1)C(=O)N[C@@H](CC(C)C)C(=O)N[C@@H](C)C(=O)N[C@@H](C)C(=O)N[C@H](C(=O)N[C@@H](CC(C)C)C(=O)NCC(=O)N[C@@H](CCCCN)C(=O)N[C@@H](CCCN=C(N)N)C(=O)N[C@@H](Cc1ccc(O)cc1)C(=O)N[C@@H](CCCCN)C(=O)N[C@@H](CCC(N)=O)C(=O)N[C@@H](CCCN=C(N)N)C(=O)N[C@H](C(=O)N[C@@H](CCCCN)C(=O)N[C@@H](CC(N)=O)C(=O)N[C@@H](CCCCN)C(N)=O)C(C)C)C(C)C)C(C)C)[C@@H](C)O` [[Arg2]PACAP(1-38)] the figure was 10 nM; with `CC[C@H](C)[C@H](NC(=O)CNC(=O)[C@H](CC(N)=O)NC(=O)[C@H](CO)NC(=O)[C@@H](N)Cc1cnc[nH]1)C(=O)N[C@@H](Cc1ccccc1)C(=O)N[C@H](C(=O)N[C@@H](CC(=O)O)C(=O)N[C@@H](CO)C(=O)N[C@@H](Cc1ccc(O)cc1)C(=O)N[C@@H](CO)C(=O)N[C@@H](CCCNC(=N)N)C(=O)N[C@@H](Cc1ccc(O)cc1)C(=O)N[C@@H](CCCNC(=N)N)C(=O)N[C@@H](CCCCN)C(=O)N[C@@H](CCC(N)=O)C(=O)N[C@@H](CCSC)C(=O)N[C@@H](C)C(=O)N[C@H](C(=O)N[C@@H](CCCCN)C(=O)N[C@@H](CCCCN)C(=O)N[C@@H](Cc1ccc(O)cc1)C(=O)N[C@@H](CC(C)C)C(=O)N[C@@H](C)C(=O)N[C@@H](C)C(=O)N[C@H](C(=O)N[C@@H](CC(C)C)C(N)=O)C(C)C)C(C)C)[C@@H](C)O` [[Asn3]PACAP(1-27)], 4000 nM.
Compound `CCC(C)[C@H](NC(=O)CNC(=O)[C@H](CC(=O)O)NC(=O)[C@@H](Cc1ccccc1)NC(=O)[C@@H](N)Cc1cnc[nH]1)C(=O)N[C@@H](Cc1ccccc1)C(=O)N[C@H](C(=O)N[C@@H](CC(=O)O)C(=O)N[C@@H](CO)C(=O)N[C@@H](Cc1ccc(O)cc1)C(=O)N[C@@H](CO)C(=O)N[C@@H](CCCN=C(N)N)C(=O)N[C@@H](Cc1ccc(O)cc1)C(=O)N[C@@H](CCCN=C(N)N)C(=O)N[C@@H](CCCCN)C(=O)N[C@@H](CCC(N)=O)C(=O)N[C@@H](CCSC)C(=O)N[C@@H](C)C(=O)N[C@H](C(=O)N[C@@H](CCCCN)C(=O)N[C@@H](CCCCN)C(=O)N[C@@H](Cc1ccc(O)cc1)C(=O)N[C@@H](CC(C)C)C(=O)N[C@@H](C)C(=O)N[C@@H](C)C(=O)N[C@H](C(=O)N[C@@H](CC(C)C)C(N)=O)C(C)C)C(C)C)[C@@H](C)O` (stereo partly drawn) [[D-Phe2]PACAP-27] showed a Ki of 800 nM. Compared with the last compound, the Ki is about 5-fold lower.
In turn, `CCC(C)[C@H](NC(=O)CNC(=O)[C@H](CC(=O)O)NC(=O)[C@@H](Cc1ccccc1)NC(=O)[C@@H](N)Cc1cnc[nH]1)C(=O)N[C@@H](Cc1ccccc1)C(=O)N[C@H](C(=O)N[C@@H](CC(=O)O)C(=O)N[C@@H](CO)C(=O)N[C@@H](Cc1ccc(O)cc1)C(=O)N[C@@H](CO)C(=O)N[C@@H](CCCN=C(N)N)C(=O)N[C@@H](Cc1ccc(O)cc1)C(=O)N[C@@H](CCCN=C(N)N)C(=O)N[C@@H](CCCCN)C(=O)N[C@@H](CCC(N)=O)C(=O)N[C@@H](CCSC)C(=O)N[C@@H](C)C(=O)N[C@H](C(=O)N[C@@H](CCCCN)C(=O)N[C@@H](CCCCN)C(=O)N[C@@H](Cc1ccc(O)cc1)C(=O)N[C@@H](CC(C)C)C(=O)N[C@@H](C)C(=O)N[C@@H](C)C(=O)N[C@H](C(=O)N[C@@H](CC(C)C)C(=O)NCC(=O)N[C@@H](CCCCN)C(=O)N[C@@H](CCCN=C(N)N)C(=O)N[C@@H](Cc1ccc(O)cc1)C(=O)N[C@@H](CCCCN)C(=O)N[C@@H](CCC(N)=O)C(=O)N[C@@H](CCCN=C(N)N)C(=O)N[C@H](C(=O)N[C@@H](CCCCN)C(=O)N[C@@H](CC(N)=O)C(=O)N[C@@H](CCCCN)C(N)=O)C(C)C)C(C)C)C(C)C)[C@@H](C)O` (stereo partly drawn) [[D-Phe2]PACAP-38] (H-H[dF]DG[Ile(3ξ)]FTDSYSRYRKQMAVKKYLAAVLGKRYKQRVKNK-NH2) showed a Ki of 8 nM. Against the preceding compound, the Ki is about 100-fold lower.
With `CC[C@H](C)[C@H](NC(=O)CNC(=O)[C@H](CC(=O)O)NC(=O)[C@@H](C)NC(=O)[C@@H](N)Cc1cnc[nH]1)C(=O)N[C@@H](Cc1ccccc1)C(=O)N[C@H](C(=O)N[C@@H](CC(=O)O)C(=O)N[C@@H](CO)C(=O)N[C@@H](Cc1ccc(O)cc1)C(=O)N[C@@H](CO)C(=O)N[C@@H](CCCN=C(N)N)C(=O)N[C@@H](Cc1ccc(O)cc1)C(=O)N[C@@H](CCCN=C(N)N)C(=O)N[C@@H](CCCCN)C(=O)N[C@@H](CCC(N)=O)C(=O)N[C@@H](CCSC)C(=O)N[C@@H](C)C(=O)N[C@H](C(=O)N[C@@H](CCCCN)C(=O)N[C@@H](CCCCN)C(=O)N[C@@H](Cc1ccc(O)cc1)C(=O)N[C@@H](CC(C)C)C(=O)N[C@@H](C)C(=O)N[C@@H](C)C(=O)N[C@H](C(=O)N[C@@H](CC(C)C)C(N)=O)C(C)C)C(C)C)[C@@H](C)O` [[DAla2]PACAP(1-27)] the figure was 8 nM.
In the case of `CCC(C)[C@H](NC(=O)CNC(=O)[C@H](CC(=O)O)NC(=O)[C@@H](C)NC(=O)[C@@H](N)Cc1cnc[nH]1)C(=O)N[C@@H](Cc1ccccc1)C(=O)N[C@H](C(=O)N[C@@H](CC(=O)O)C(=O)N[C@@H](CO)C(=O)N[C@@H](Cc1ccc(O)cc1)C(=O)N[C@@H](CO)C(=O)N[C@@H](CCCN=C(N)N)C(=O)N[C@@H](Cc1ccc(O)cc1)C(=O)N[C@@H](CCCN=C(N)N)C(=O)N[C@@H](CCCCN)C(=O)N[C@@H](CCC(N)=O)C(=O)N[C@@H](CCSC)C(=O)N[C@@H](C)C(=O)N[C@H](C(=O)N[C@@H](CCCCN)C(=O)N[C@@H](CCCCN)C(=O)N[C@@H](Cc1ccc(O)cc1)C(=O)N[C@@H](CC(C)C)C(=O)N[C@@H](C)C(=O)N[C@@H](C)C(=O)N[C@H](C(=O)N[C@@H](CC(C)C)C(=O)NCC(=O)N[C@@H](CCCCN)C(=O)N[C@@H](CCCN=C(N)N)C(=O)N[C@@H](Cc1ccc(O)cc1)C(=O)N[C@@H](CCCCN)C(=O)N[C@@H](CCC(N)=O)C(=O)N[C@@H](CCCN=C(N)N)C(=O)N[C@H](C(=O)N[C@@H](CCCCN)C(=O)N[C@@H](CC(N)=O)C(=O)N[C@@H](CCCCN)C(N)=O)C(C)C)C(C)C)C(C)C)[C@@H](C)O` (some centres undefined) [[DAla2]PACAP(1-38)] it was 0.7 nM.
With `CC[C@H](C)[C@H](NC(=O)CNC(=O)[C@H](CC(=O)O)NC(=O)[C@@H](CCCN=C(N)N)NC(=O)[C@@H](N)Cc1cnc[nH]1)C(=O)N[C@@H](Cc1ccccc1)C(=O)N[C@H](C(=O)N[C@@H](CC(=O)O)C(=O)N[C@@H](CO)C(=O)N[C@@H](Cc1ccc(O)cc1)C(=O)N[C@@H](CO)C(=O)N[C@@H](CCCN=C(N)N)C(=O)N[C@@H](Cc1ccc(O)cc1)C(=O)N[C@@H](CCCN=C(N)N)C(=O)N[C@@H](CCCCN)C(=O)N[C@@H](CCC(N)=O)C(=O)N[C@@H](CCSC)C(=O)N[C@@H](C)C(=O)N[C@H](C(=O)N[C@@H](CCCCN)C(=O)N[C@@H](CCCCN)C(=O)N[C@@H](Cc1ccc(O)cc1)C(=O)N[C@@H](CC(C)C)C(=O)N[C@@H](C)C(=O)N[C@@H](C)C(=O)N[C@H](C(=O)N[C@@H](CC(C)C)C(N)=O)C(C)C)C(C)C)[C@@H](C)O` [[DArg2]PACAP(1-27)] the figure was 500 nM; with `CC[C@H](C)[C@H](NC(=O)CNC(=O)[C@H](CC(=O)O)NC(=O)[C@@H](CCCN=C(N)N)NC(=O)[C@@H](N)Cc1cnc[nH]1)C(=O)N[C@@H](Cc1ccccc1)C(=O)N[C@H](C(=O)N[C@@H](CC(=O)O)C(=O)N[C@@H](CO)C(=O)N[C@@H](Cc1ccc(O)cc1)C(=O)N[C@@H](CO)C(=O)N[C@@H](CCCN=C(N)N)C(=O)N[C@@H](Cc1ccc(O)cc1)C(=O)N[C@@H](CCCN=C(N)N)C(=O)N[C@@H](CCCCN)C(=O)N[C@@H](CCC(N)=O)C(=O)N[C@@H](CCSC)C(=O)N[C@@H](C)C(=O)N[C@H](C(=O)N[C@@H](CCCCN)C(=O)N[C@@H](CCCCN)C(=O)N[C@@H](Cc1ccc(O)cc1)C(=O)N[C@@H](CC(C)C)C(=O)N[C@@H](C)C(=O)N[C@@H](C)C(=O)N[C@H](C(=O)N[C@@H](CC(C)C)C(=O)NCC(=O)N[C@@H](CCCCN)C(=O)N[C@@H](CCCN=C(N)N)C(=O)N[C@@H](Cc1ccc(O)cc1)C(=O)N[C@@H](CCCCN)C(=O)N[C@@H](CCC(N)=O)C(=O)N[C@@H](CCCN=C(N)N)C(=O)N[C@H](C(=O)N[C@@H](CCCCN)C(=O)N[C@@H](CC(N)=O)C(=O)N[C@@H](CCCCN)C(N)=O)C(C)C)C(C)C)C(C)C)[C@@H](C)O` [[DArg2]PACAP(1-38)], 10 nM.

One may read the Ki as a measure of affinity in units of concentration, obtained from inhibition or displacement.

For the origin of these results see BindingDB's records for doi:10.1016/s0028-3908(05)80009-7 (Universit&Eacute, 1994).
